Several values for one entry are separate records, joined by “and”; a condition that tells them apart may be missing. Equal entries are not always repeated. ± gives the expanded uncertainty stated by the source.
Conditions: 313.15 K; Liquid; Closed cell (Static) method

Question: With CCCCCCC [heptane] as the compound, how does the “vapor or sublimation pressure” value read?
Answer: Its value is 12.32 ± 0.056 kPa and 12.33 ± 0.056 kPa and 12.31 ± 0.056 kPa.

Question: For CCOC(C)(C)C [2-ethoxy-2-methylpropane], which “vapor or sublimation pressure” value is on record?
Answer: Its value is 31.62 ± 0.12 kPa and 31.63 ± 0.12 kPa and 31.64 ± 0.12 kPa.

Question: With Cc1ccccc1 [toluene] as the compound, how does the “vapor or sublimation pressure” value read?
Answer: Its value is 7.88 ± 0.041 kPa [middle of 4 runs].
